The text below walks through data of paper PMC10780244, “Antileishmanial Effect of 1,5- and 1,8-Substituted Fused Naphthyridines” (Molecules, 2023).

Data set [1] can be described thus: Cytotoxicity in uninfected murine splenic cells (alamarBlue). In kind it is cell-based, mouse. The following applies: mouse; uninfected splenic cells, 72 h, alamarBlue; read-out: Mouse Splenic Macrophages CC50. The procedure: (§1) Amastigotes obtained from mouse bone marrow cells were used to perform a first screening with the complete series of fused 1,5- and 1,8-naphthyridines. […] The toxicity of these selected compounds was assessed in non-infected splenic cells and the cytotoxic concentration (CC50) value obtained was used to calculate the selective index (SI). The oral tolerability of these same compounds was tested by calculating the viability of murine intestinal organoids exposed to two concentrations (50 and 25 µM). In order to assess the in vitro safety of the naphthyridines, cytotoxicity assays were carried out in ex vivo splenic explants from uninfected mice, which were prepared as previously described to obtain intramacrophagic amastigotes. Cells were seeded at a density of 1 × 10^6 cells per well in 96-well plates containing the prediluted compounds and incubated at 37 °C and 5% CO2 during 72 h. AlamarBlue assay (Invitrogen, Fisher Scientific, Waltham, MA, USA) was used to estimate cell viability following manufacturer’s recommendations. The assays were performed by triplicate. Absorbance of viable cells vs. compound concentrations were fitted by nonlinear analysis using the Sigma Plot 10.1 statistical package to calculate the cytotoxic concentration 50 (CC50) values. Selectivity index (SI) was calculated as the ratio between CC50 and the EC50 values of intramacrophagic amastigotes.

Data set [2] deals with axenic iRFP-L. infantum amastigotes from bone marrow cells. Nature of the data set: Axenic amastigote viability assay (iRFP fluorescence, first screening). The following applies: Leishmania infantum, Bone marrow cell, cut-off 25 µM, 72 h, read-out: Axenic Amastigotes (concentration with inhibition). In kind it is cell-based. The procedure:
The 1,5- and 1,8-fused naphthyridine derivatives were evaluated as antileishmanial agents in assays using two forms of L. infantum amastigotes: axenic amastigotes recovered from bone marrow cells of infected BALB/c mice and intramacrophagic amastigotes obtained from splenic explants of the same subjects. The L. infantum strain used is a genetically modified strain previously engineered by our group to constitutively express the infrared protein iRFP from Rhodopseudomonas palustris bacteriophytochrome (iRFP L. infantum). This strain allows monitoring the viability of both forms of the parasite by quantifying the fluorescence emitted at 700 nm by the iRFP protein produced by living amastigotes.
Amastigotes obtained from mouse bone marrow cells were used to perform a first screening with the complete series of fused 1,5- and 1,8-naphthyridines. […] The toxicity of these selected compounds was assessed in non-infected splenic cells and the cytotoxic concentration (CC50) value obtained was used to calculate the selective index (SI). The oral tolerability of these same compounds was tested by calculating the viability of murine intestinal organoids exposed to two concentrations (50 and 25 µM).
To obtain iRFP-L. infantum axenic amastigotes, femur and tibia were carefully cut at both ends, and marrow cells were removed by passing PBS through the medullary cavity with a 29G needle. The bone marrow cell suspension was filtered through a 100 µm cell strainer and centrifuged at 3500× g for 10 min at room temperature. After centrifugation, cells were resuspended in amastigote culture medium: 15 mM KCl; 136 mM KH2PO4; 10 mM K2HPO4·3H2O; 0.5 mM MgSO4. 7H2O; 24 mM NaHCO3; 22 mM glucose; 1 mM glutamine, 1xRPMI 1640 vitamin mix (Sigma-Aldrich, Merck, Darmstadt, Germany), 10 mM folic acid, 100 mM adenosine, 1xRPMI amino acid mix (Sigma-Aldrich, Merck, Darmstadt, Germany), 5 mg/mL hemin, antibiotic cocktail, 25 mM MES and 10% FBS, and incubated at 37 °C.
To test the antileishmanial effect of naphthyridines on axenic amastigotes, 40 μL of a suspension containing 3 × 10^4 iRFP-L. infantum parasites per well were incubated with another 40 μL of the drugs dilutions in amastigote culture medium with 7.5% FBS. Incubations were performed in 384-well black microtiter plates with an optical bottom at 37 °C and 5% CO2 for 72 h. Solutions of 0.1% (v/v) DMSO and 10 μM AMB were used as negative and positive controls, respectively. The assays were performed by triplicate.
The viability of axenic and intramacrophage amastigotes was calculated measuring the fluorescence emitted at 700 nm by the iRFP protein from live parasites and recorded by an Odyssey infrared imaging system (Li-Cor, NE, USA). The fluorescence emitted by the negative control wells was considered 100% viability, whereas the fluorescence emitted by the positive control wells, was adjusted to 0% viability.

For data set [3], the system named is leishmanial DNA topoisomerase IB (LdTopIB). Briefly: Relaxation of supercoiled plasmid DNA assay. In kind it is biochemical, Leishmania. The note with it: 100 μM of compounds, 1 min at 37 °C, in words. The procedure:
page 2: DNA DMSO 6b8a8b8c9b10b11a13a13b14a7c8d15b Relaxationof supercoiled plasmid DNA assay. Each reaction contains one unit of purified leishmanial DNA topisomeraseIB enzyme (LdTopIB), 100 μM ofcompounds, 0.5μg of supercoiled […], 10 mM Tris-HCl buffer pH 7.5, 5 mM MgCl 2, 0.1 mM EDTA, 15 μg/mL bovine serum albumin, 150 mM KCl. Reaction mixtures were incubated 1 min at 37 °C and stopped by the addition of 4 μL loading buffer (5% sarkosyl, 0.12% bromophenol blue, 25% glycerol). The topoisomerswere resolved in 1% agarose gels by electrophoresis in 0.1 M Tris borate EDTA buffer (pH 8.0) at 2 V/cm for 16 h and visualized with UV illumination after ethidium bromide (0.5μg/mL) staining. […]

Data set [4] has as its system two cancer cell lines. Also noted: method as in PMID 31229877, PMID 32279049, PMID 33962152. The note with it: cited from earlier work.
The test system of data set [5] is mouse splenic macrophages. Briefly: Cytotoxicity in uninfected murine splenic cells (alamarBlue). In kind it is cell-based. The following applies: summary in discussion. As for the experimental part:
as §1

The subject of data set [6] is recombinant human DNA topoisomerase IB (hTopIB). Also noted: method as in PMID 31229877, PMID 32279049, PMID 33962152; dose or concentration left out as unconfirmed. The following applies: cited from earlier work.

`O=C1Oc2ccccc2C2Nc3ccc(Br)nc3[C@@H](c3ccccc3)C12` (stereo partly shown) [Compound 6b]: the CC50 at 72 h in data set [1] worked out at 55.7 ± 6.42 µM. Moreover, the minimal effective concentration in data set [2] is under 25 µM.
With `COc1ccc2nc3c(c(-c4ccccc4)c2n1)c(=O)oc1ccccc13` [Compound 7c], the CC50 at 72 h in data set [1] was determined as 97.7 ± 1.77 µM. Besides, in data set [2], the minimal effective concentration is under 25 µM.
For the compound `Cc1ccc(S(=O)(=O)N2CC3C(Nc4cccnc4[C@H]3c3ccccc3)c3ccccc32)cc1` (stereo partly shown) [Compound 8a], the CC50 at 72 h in data set [1] stood at 45 ± 3.91 µM. For the same compound, the minimal effective concentration in data set [2] is under 25 µM.
For the compound `COc1ccc2c(n1)[C@@H](c1ccccc1)C1CN(S(=O)(=O)c3ccc(C)cc3)c3ccccc3C1N2` (stereo partly shown) [Compound 8c], the CC50 at 72 h in data set [1] is over 100 µM. The minimal effective concentration in data set [2] was under 25 µM.
For the compound `Cc1ccc(S(=O)(=O)N2CC3C(Nc4ccc(Br)nc4[C@H]3c3ccccc3)c3ccccc32)cc1` (stereo partly shown) [Compound 8d], the CC50 at 72 h in data set [1] was over 50 µM. In data set [2], the minimal effective concentration was under 25 µM.
`Fc1ccc2c(c1)C1Nc3ncccc3[C@@H](c3ccccc3)C1CO2` (stereo partly shown) [Compound 10b]: the CC50 at 72 h in data set [1] is 50.7 ± 0.99 µM. Besides, in data set [2], the minimal effective concentration was under 25 µM.
Consider `c1ccc(-c2c3c(nc4ncccc24)-c2ccccc2OC3)cc1` [Compound 11a], for which, in data set [1], the half-maximal cytotoxic concentration (CC50) at 72 h was over 100 µM. For the same compound, the minimal effective concentration in data set [2] is under 25 µM.
With `O=c1oc2ccccc2c2nc3ncccc3c(-c3ccccc3)c12` [Compound 13a], the LdTopIB inhibitory activity result in data set [3] is listed as “did not show leishmanial DNA topoisomerase IB (LdTopIB) inhibitory activity”. Moreover, the “cytotoxic effects on two cancer cell lines (concentration range)” value (“cytotoxic effects” below) in data set [4] was 1 to 15 µM. Besides, in data set [1], the CC50 at 72 h is 34.6 ± 1.79 µM. Further, the “toxicity (in words)” value in data set [5] was “significant toxicity”. In addition, the minimal effective concentration in data set [2] was under 25 µM. Besides, in data set [6], the “inhibitory effect on DNA relaxation activity of hTopIB” value (shortened to “inhibitory effect”) was “had an inhibitory effect on DNA relaxation activity”.
With `O=c1oc2ccccc2c2nc3ncc(Br)cc3c(-c3ccccc3)c12` [Compound 13b], the 50% cytotoxic concentration (CC50) at 72 h in data set [1] was over 50 µM. Moreover, the minimal effective concentration in data set [2] was under 25 µM.
As to `Cc1ccc(S(=O)(=O)N2CC3C(Nc4ncccc4C3c3ccccc3)c3ccccc32)cc1` (stereo not shown) [Compound 14a], the LdTopIB inhibitory activity entry in data set [3] is reported as “did not show leishmanial DNA topoisomerase IB (LdTopIB) inhibitory activity”. In data set [4], the “cytotoxic effects” value is 1 to 15 µM. Moreover, in data set [1], the CC50 at 72 h is 27.2 ± 1.55 µM. Moreover, the “toxicity (in words)” value in data set [5] is “significant toxicity”. Besides, the minimal effective concentration in data set [2] was under 25 µM. In data set [6], the “inhibitory effect” value is “had an inhibitory effect on DNA relaxation activity”.
On to `Cc1ccc(S(=O)(=O)N2Cc3c(nc4ncc(Br)cc4c3-c3ccccc3)-c3ccccc32)cc1` [Compound 15b], for which the LdTopIB inhibitory activity entry in data set [3] is reported as “did not show leishmanial DNA topoisomerase IB (LdTopIB) inhibitory activity”. Besides, the “cytotoxic effects” value in data set [4] was 1 to 15 µM. For the same compound, in data set [1], the CC50 at 72 h stood at 24.6 ± 3.59 µM. Moreover, in data set [5], the “toxicity (in words)” value is reported as “significant toxicity”. For the same compound, the minimal effective concentration in data set [2] is under 25 µM. Moreover, the “inhibitory effect” value in data set [6] is “had an inhibitory effect on DNA relaxation activity”.
